These results are taken from patent publication US20090036525A1, “Non-Natural Amino Acid Derivatives” (POXIMAGEN LTD., priority 2006, published 2009).

Where a SMILES comes first, the peptide text is derived from it. [ ]: non-standard residue; d: D form. Dopa = N[C@@H](Cc1ccc(O)c(O)c1)C(=O)O; Cha = N[C@@H](CC1CCCCC1)C(=O)O

The test system of the assay is 6-OHDA-lesioned rats. Kind of assay: Induction of rotational activity in 6-OHDA-lesioned rats. The following applies: 63.4 μmole/kg, after benserazide 10 mg/kg, rotations over 4 hours. The format is in vivo, rat.

As for `COC(=O)[C@H](Cc1ccc(O)c(O)c1)NC(=O)[C@@H](N)[C@H](C)c1ccccc1.Cl` [Example 13, (1S,2R)-1-[(S)-2-(3,4-Dihydroxyphenyl)-1-methoxycarbonyl-ethylcarbamoyl]-2-phenylpropylammonium; chloride], where the note is “p.o.”, the “AUC activity (as % of AUC activity L-DOPA)” value is 106 % of L-DOPA, the “Peak activity (as % of maximal activity L-DOPA)” value is on record as 141 % of L-DOPA and the “duration of activity (as % of duration of activity L-DOPA)” value is reported as 76 % of L-DOPA.

Take `COC(=O)[C@H](Cc1ccc(O)c(O)c1)NC(=O)[C@@H](N)CC1CCCCC1.Cl` [Example 1, (S)-2-Cyclohexyl-1-[(S)-2-(3,4-dihydroxyphenyl)-1-methoxycarbonylethyl-carbamoyl]-ethylammonium chloride] (H-[Cha]-[Dopa]-OMe): for the setting “p.o.”, the “AUC activity (as % of AUC activity L-DOPA)” value is 40 % of L-DOPA, the “Peak activity (as % of maximal activity L-DOPA)” value is reported as 53 % of L-DOPA and the “duration of activity (as % of duration of activity L-DOPA)” value is 45 % of L-DOPA.

For `COC(=O)[C@H](Cc1ccc(OC(C)=O)c(OC(C)=O)c1)NC(=O)[C@@H](N)CC1CCCCC1.Cl` [Example 2, (S)-2-Cyclohexyl-1-[(S)-2-(3,4-diacetoxyphenyl)-1-methoxycarbonyl-ethylcarbamoyl]-ethylammonium chloride], for the setting “i.p.”, the “AUC activity (as % of AUC activity L-DOPA)” value is 32 % of L-DOPA, the “Peak activity (as % of maximal activity L-DOPA)” value was 31 % of L-DOPA and the “duration of activity (as % of duration of activity L-DOPA)” value was 27 % of L-DOPA.

`COC(=O)[C@H](Cc1ccc(O)c(O)c1)NC(=O)[C@@H](N)[C@@H](C)c1ccccc1.Cl` [Example 12, (1S,2S)-1-[(S)-2-(3,4-Dihydroxyphenyl)-1-methoxycarbonylethylcarbamoyl]-2-phenylpropylammonium chloride]: under “p.o.”, the “AUC activity (as % of AUC activity L-DOPA)” value was 50 % of L-DOPA, the “Peak activity (as % of maximal activity L-DOPA)” value is reported as 62 % of L-DOPA and the “duration of activity (as % of duration of activity L-DOPA)” value is given as 46 % of L-DOPA.
